# Measurements published in publication PMC4136671 (Journal of Medicinal Chemistry, 2014).
# Columns and labels:
# T. cruzi CYP51 [1] = biological target: T1, T. cruzi CYP51 (Trypanosoma cruzi, UniProt Q7Z1V1); test: CYP51 spectral ligand binding assay; details: for time course of the amplitude of the type 2 spectral response: T. cruzi CYP51 1.0 μM, 0.2 μM ligand (enzyme in excess)
# T. cruzi CYP51 [2] = biological target: T1, T. cruzi CYP51; test: CYP51 activity assay; format: biochemical; details: vs (R)-2; I/E=2, 1 h
# Chagas disease = details: acute and chronic forms; cited from earlier work
# T1 sequence (Q7Z1V1 whole entry): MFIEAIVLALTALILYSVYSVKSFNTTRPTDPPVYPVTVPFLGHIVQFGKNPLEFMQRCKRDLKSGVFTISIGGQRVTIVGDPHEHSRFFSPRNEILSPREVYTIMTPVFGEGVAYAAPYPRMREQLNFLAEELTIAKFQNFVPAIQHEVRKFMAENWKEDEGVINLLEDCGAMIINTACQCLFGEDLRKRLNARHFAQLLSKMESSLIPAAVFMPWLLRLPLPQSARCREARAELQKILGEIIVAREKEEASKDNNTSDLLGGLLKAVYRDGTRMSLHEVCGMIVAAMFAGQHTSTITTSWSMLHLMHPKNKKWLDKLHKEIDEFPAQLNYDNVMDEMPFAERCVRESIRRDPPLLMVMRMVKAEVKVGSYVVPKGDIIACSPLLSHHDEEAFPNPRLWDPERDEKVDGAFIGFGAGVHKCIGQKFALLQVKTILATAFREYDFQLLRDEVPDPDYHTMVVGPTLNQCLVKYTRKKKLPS
smiles,measurement,setting,value
"CC(C)c1ccc(NC(=O)O[C@H](Cn2ccnc2)c2ccc(Cl)cc2)cc1 [(S)-2, 1-(4-chlorophenyl)-2-(1H-imidazol-1-yl)ethyl-4-isopropylphenylcarbamate]","apparent binding efficiency, fold higher than (R)-2",T. cruzi CYP51 [1]; vs (R)-2,2 fold
same,"inhibitory effect on the substrate conversion, fold stronger than (R)-2",T. cruzi CYP51 [2],~50 fold
"O=C(Nc1ccc(N2CCN(c3ccc(Cl)c(Cl)c3)CC2)cc1)OC(Cn1ccnc1)c1ccc(Cl)cc1Cl (centres unmarked) [Compound 6, 1-(2,4-dichlorophenyl)-2-(1H-imidazol-1-yl)ethyl 4-[4-(3,4-dichlorophenyl)piperazin-1-yl]phenylcarbamate]",time course of the amplitude of the type 2 spectral response,T. cruzi CYP51 [1],very slow increase
"O=C(N[C@@H](Cn1ccnc1)c1ccc(Cl)cc1Cl)c1ccc(-c2nnc(-c3ccccc3)o2)cc1 [VNI, (R)-N-(1-(2,4-dichlorophenyl)-2-(1H-imidazol-1-yl)ethyl)-4-(5-phenyl-1,3,4-oxadiazol-2-yl)benzamide]",cure of Chagas disease in mice,Chagas disease,cure both the acute and chronic forms
"CC(=O)N1CCN(c2ccc(OCC3COC(Cn4ccnc4)(c4ccc(Cl)cc4Cl)O3)cc2)CC1 (centres unmarked) [ketoconazole, reference compound]",time course of the amplitude of the type 2 spectral response,T. cruzi CYP51 [1],somewhat similar pattern
